Laboratory results as given in patent publication US7223856B2, “Antisense compounds which prevent cell death and uses thereof” (The Trustees of Columbia University in the City of New York, priority 1997, dated 2007).

Experiments:
PC12 cells [1] = details: PC12 cells and sympathetic neurons, Troy et al., 1996b; cited from earlier work
naive PC12 cells [2] = details: PC12 cells and sympathetic neurons, Troy et al., 1996b; cited from earlier work
naive PC12 cells [3] = test: Survival of naive PC12 cells after serum deprivation (intact nuclei count); assay type: cell-based, rat; details: for protection from death caused by serum deprivation: additive at time of plating in serum-free medium, 24 hours
Protocol: (FIG. 4B) Dose-response curve for protection from serum deprivation by V-ANedd. PC12 cells were washed for trophic factor deprivation and plated in serum-free medium with the indicated concentrations of V-ANedd. Cell survival relative to the number present with the addition of NGF was measured at one day.
PC12 cells were grown as previously described (Greene and Tischler, 1976) on rat-tail collagen-coated dishes in RPMI 1640 medium containing 5% fetal calf serum and 10% heat-inactivated horse serum (complete medium). […] For cell survival assays involving trophic factor deprivation, cells (either naive or NGF-pretreated) were extensively washed in serum-free RPMI 1640 medium and re-plated on fresh collagen-coated 24-well dishes as previously described (Rukenstein et al., 1991) in RPMI 1640 medium lacking serum or NGF. […] Various concentrations of V-ANedd (vector linked antisense oligonucleotide to Nedd2) were included in the medium as indicated. Numbers of viable cells per culture were determined by quantifying intact nuclei as previously described (Rukenstein et al., 1991). Counts were performed in triplicate and reported as means ±SEM.

Jurkat cells = test: Anti-Fas mediated death of Jurkat cells; assay type: cell-based, human; details: dose-dependent, FIG. 8
Source text: FIG. 8. […] V-ICH is an antisense oligonucleotide having an antisense sequence of human Ich, specifically V-AICH has the sequence of Seq ID No. 2.
• 1. […] Beta-amyloid peptide mediates apoptosis in PC12 cells. This apoptosis can be abrogated by down-regulation of Nedd2. Clinical Relevance of Antisense Oligonucleotides.

IL-1β = IL-1β release from PC12 cells by ELISA; assay type: cell-based, rat; details: 50 nM V-ASOD1, 800 nM V-ANedd, 20 hours
Protocol: PC12 cells were plated with the indicated additives (50 nM V-ASOD1, 25 nM V-ICEinh, 800 nM V-ANedd). Controls contained complete medium. After 20 hours, media were removed and IL-1β was measured by ELISA using the Intertest-1βX® kit. Data are expressed as means ±SEM (n=3).
IL-1β was quantified by ELISA using the Intertest-1βX® kit (Genzyme, Cambridge, Mass.) as previously described (Troy et al., 1996b). PC12 cells were grown as described above, on 24-well plates, in 500 μl of medium. After one day incubation, medium was removed and IL-1β measured following the manufacturer's instructions, and number of viable cells in each well quantified.

sympathetic neurons [4] = test: Sympathetic neuron death by SOD1 down-regulation and nitric oxide generation (V-ASOD1 + SNAP); assay type: cell-based, rat; details: V-ASOD1 50 nM, SNAP 100 μM, with NGF
Protocol: Sympathetic neurons, after 6 days in culture, were maintained with NGF (100 ng/ml) and mixtures of the following additives as indicated: V-ASOD1 (50 nM), SNAP (100 μM) and V-ANedd (400 nM). Numbers of surviving neurons were determined at the indicated times as above.
(§1) Sympathetic neuron cultures were prepared from 2 day old rat pups, as previously described (Ferrari et al., 1995). Cultures were grown in 24-well collagen coated dishes in RPMI 1640 medium plus 10% horse serum with mouse NGF (100 ng/ml). One day following plating, uridine and 5-fluorodeoxyuridine (10 μM each) were added to the cultures and left for three days to eliminate non-neuronal cells. On the sixth day following plating NGF was removed by washing the cultures three times with RPMI 1640 medium plus 10% horse serum, followed by the addition of medium containing anti-mouse NGF (1:200, Sigma, St. Louis, Mo.) with or without V-ANedd. Each culture was scored, as previously described (Rydel and Greene, 1988), as numbers of living, phase-bright neurons at various times. Three replicate cultures were assessed for each condition and data are normalized to numbers of neurons present in each culture at the time of NGF withdrawal and reported as mean ±SEM.

CPP-32 = test: Western blot of the same samples probed with anti-CPP32; assay type: cell-based, rat; details: blots of the same samples probed with anti-CPP32
Nedd2 [5] = test: Western blot of Nedd2 in PC12 cell lysates; assay type: cell-based, rat
Source text: The cells were extracted in sample buffer, the extracts boiled and equal amounts of protein resolved by 10% SDS-PAGE and transferred to nitrocellulose. Blots were probed with (FIG. 3A) anti-N-Nedd at 1:500 or (FIG. 3B) anti-C-Nedd at […] and staining visualized with ECL. Bands were quantified using Scion Image® software and normalized against peripherin levels. The level of down-regulation is representative of that obtained in 5 independent experiments.
PC12 cells grown with or without V-ANedd or V-SNedd were harvested in SDS-containing sample buffer and immediately boiled. Equal amounts of protein were separated by 10% PAGE, transferred to nitrocellulose and immunostained as described (Troy et al., 1992). The affinity purified anti-N-Nedd2 was used at a dilution of 1:500. The commercial antiserum, Nedd2 p12 C20 (Santa Cruz Biotechnology), was used at a dilution of 1:350. Visualization was with ECL using goat-anti-rabbit peroxidase at 1:1000. The relative intensity of the protein bands were quantified using Scion Image 1.55® software and samples were normalized by stripping and reprobing the blots with anti-peripherin antibody.

Nedd2 [6] = test: Nedd2 immunofluorescence staining of PC12 cells with anti-N-Nedd2; assay type: cell-based, rat; details: 400 nM, 24 hours, naive and neuronal PC12 cells
Protocol: Naive and neuronally differentiated PC12 cells (pretreated for at least 7 days with NGF, nerve growth factor) were plated on Matrigel coated multichamber slides. V-ANedd (400 nM) was added to the indicated cultures after plating. Naive cultures were grown in RPMI 1640 medium with 5% FCS and 10% horse serum; neuronal cultures were grown in RPMI 1640 medium with 1% horse serum and NGF (100 ng/ml). After overnight maintenance, cells were fixed in ice cold methanol and then immunostained with anti-N-Nedd.
PC12 cells were plated on coverslips or on 8 well multichamber slides (LabTek, VWR), coated with Matrigel®. After growth overnight, cells were fixed in ice cold methanol and then immunostained as described (Troy et al., 1990). The primary antibody was either affinity purified antibody Anti-N-Nedd2 or Nedd2 p12 C20 (Santa Cruz Biotechnology) at a dilution of 1:200. The secondary antibody was fluoroscein isothiocyanate-conjugated goat anti-rabbit (Cappel, Durham, N.C.) at 1:100. For visualization with a Nikon® fluorescence microscope slides were coverslipped with Aqua-mount®. Confocal microscopy was done on a BioRad® 600 confocal microscope.

sympathetic neurons [7] = test: Survival of sympathetic neurons after NGF deprivation; assay type: cell-based, rat; details: for survival: single addition at time of NGF withdrawal
Protocol: (FIG. 6A) V-ANedd protects sympathetic neurons from NGF-withdrawal. At the time of NGF deprivation, V-ANedd (400 nM) was added to the cultures as indicated. Numbers of surviving neurons were determined at the indicated times as described in Experimental Procedures hereinbelow and are reported as relative to the number present in each culture at the time of NGF withdrawal.
as §1

[8] = test system: neuronally differentiated PC12 cells; test: Survival of neuronally differentiated PC12 cells after SOD1 down-regulation; assay type: cell-based, rat; details: 50 nM V-ASOD1
Protocol: (§2) (FIG. 5A) V-ANedd differentially protects neuronally differentiated PC12 cells from apoptosis caused by NGF withdrawal. PC12 cells were neuronally differentiated by exposure to NGF (100 ng/ml) for at least 7 days in RPMI 1640 medium plus 1% horse serum. Cells were deprived of serum and NGF and re-plated as described in FIGS. 4A–C. Additives present at the time of plating included 400 nM V-ANedd, 400 nM V-ICEinh or 100 ng/ml NGF (4 left-hand bars). For SOD1 down-regulation (4 right-hand bars) neuronally differentiated PC12 cells were plated in RPMI 1640 medium plus 1% horse serum, with 100 ng/ml NGF. At the time of plating, cultures were incubated, as indicated, with 50 nM V-ASOD1 and with the indicated additives (800 nM V-ANedd, 50 nM V-ICEinh). Cell survival was determined after one day and expressed as in FIGS. 4A–C.
(§3) PC12 cells were grown as previously described (Greene and Tischler, 1976) on rat-tail collagen-coated dishes in RPMI 1640 medium containing 5% fetal calf serum and 10% heat-inactivated horse serum (complete medium). NGF primed (neuronally differentiated) PC12 cells were grown for at least 7 days in RPMI 1640 medium plus 1% horse serum and NGF (100 ng/ml). […] Numbers of viable cells per culture were determined by quantifying intact nuclei as previously described (Rukenstein et al., 1991). […]

PC12 cells [9] = test: Survival of PC12 cells after SOD1 down-regulation by V-ASOD1; assay type: cell-based, rat
Protocol: (FIG. 4A) V-ANedd differentially protects PC12 cells from serum deprivation. For serum deprivation (4 left-hand bars) cells were extensively washed as described in Experimental Procedures hereinbelow and the indicated additives (100 ng/ml NGF, 400 nM V-ANedd, or 200 nM V-ICEinh were added at the time of plating in serum-free RPMI1640 medium. For SOD1 down-regulation (4 right-hand bars), PC12 cells were re-plated on fresh collagen-coated 24-well dishes in complete medium (RPMI 1640 medium with 10% horse serum, 5% fetal bovine serum) with 50 nM V-ASOD1 (vector linked antisense oligonucleotide to SOD1). Additives (800 nM V-ANedd, 25 nM V-ICEinh) were included as indicated. Control cells were in complete medium. Cultures were incubated for 24 hours, lysed and number of intact nuclei counted. The numbers of surviving cells are expressed relative to the number in the control cultures (designated as 100). […] Experiments were performed in triplicate wells and data are expressed as means ±SEM.
as §3, with “medium).” for “medium). NGF primed (neuronally differentiated) PC12 cells were grown for at least 7 days in RPMI 1640 medium plus 1% horse serum and NGF (100 ng/ml).”

[10] = test system: neuronally differentiated PC12 cells; test: Survival of neuronally differentiated PC12 cells after NGF withdrawal; assay type: cell-based, rat
Protocol: as §2
(FIG. 5B) Dose-response curve for protection from NGF deprivation by V-ANedd. Neuronally differentiated PC12 cells were washed as above for NGF deprivation and plated in serum-free medium with the indicated concentrations of V-ANedd. Cell survival relative to the number present with the addition of NGF was quantified at one day.
(FIG. 5C) V-ANedd provides long term protection against NGF deprivation. Neuronally differentiated PC12 cells were deprived of NGF and serum and plated as described in FIG. 5A. V-ANedd (400 nM) was included at the time of NGF deprivation and replenished 1 day later. Cell survival was determined at the indicated times as in FIGS. 4A–C.
as §3

IL-1Ra: IL-1 receptor antagonist
apoptosis following SOD1 down-regulation (literature) (PC12 cells [1]): suppressed
death caused by trophic factor/NGF withdrawal (literature) (naive PC12 cells [2]): little or no effect

NGF: nerve growth factor
protection from death caused by serum deprivation (naive PC12 cells [3]): promotes survival of all cells initially plated

V-AICH: antisense oligonucleotide having an antisense sequence of human Ich, Seq ID No. 2 (GTCAGCGGCCATCAGCTT) (linked to vector peptide (Penetratin1), oligo chemistry not given here)
protection from anti-Fas mediated death (Jurkat cells): protect from anti-Fas mediated death in a dose-dependent manner

V-ANedd: Penetratin1-linked antisense oligonucleotide to Nedd2, GCTCGGCGCCGCCATTTCCAG (SEQ ID NO:1) (Penetratin1 peptide conjugated, oligonucleotide chemistry not given here)
IL-1β release after exposure to ASOD1 (IL-1β): did not affect IL-1β release
effect on sympathetic neuron death evoked by V-ASOD1+SNAP (sympathetic neurons [4]): without effect
down-regulation of CPP-32 (CPP-32): no down-regulation of CPP-32
down-regulation of major band and minor Nedd2 bands (Nedd2 [5]; 18–22 hours treatment, n=4): 60–70%
down-regulation of Nedd2 in the presence of V-ASOD1 (Nedd2 [5]; in the presence of V-ASOD1): did down-regulate Nedd2
anti-N-Nedd2 staining (immunohistochemistry) (Nedd2 [6]): decreased to almost undetectable levels
maintenance of neurites of NGF-deprived neurons (sympathetic neurons [7]; 400 nM, NGF-free medium with anti-NGF): did not maintain the neurites
survival (sympathetic neurons [7]; after 4 days): over 60%
survival (sympathetic neurons [7]; at 8 days): 25%
protection from down-regulation of SOD1 [8]: not from down-regulation of SOD1
concentration of maximal protection (naive PC12 cells [3]; added at the same time as serum withdrawal): 400 nM
protection from death caused by serum deprivation (naive PC12 cells [3]): protects naive PC12 cells from death caused by serum deprivation
concentration of maximal survival after pretreatment (naive PC12 cells [3]; pretreatment for 4 hours with 50 nM V-ANedd): 100 nM
protection from SOD1 down-regulation (PC12 cells [9]; naive PC12 cells, 50 nM V-ASOD1, V-ANedd up to 800 nM): no protection from SOD1 down-regulation
protection from SOD1 down-regulation after pretreatment (PC12 cells [9]; pretreatment with V-ANedd): without effect
NGF-like flattening of naive PC12 cells or neurite outgrowth from neuronally-differentiated cells ([10]; morphology, 400 nM, 24 hr): did not mimic the actions of NGF
protection from apoptosis caused by NGF withdrawal ([10]; neuronally differentiated PC12 cells, one day): protected neuronally differentiated PC12 cells from apoptosis caused by NGF withdrawal
survival of cells ([10]; two successive additions (at NGF deprivation and one day later), through 4 days): greater than 75%

V-SNedd: control scrambled oligonucleotide CCGTAGCGTAGCTCCGCCTGC (SEQ ID NO:5) linked to vector peptide Penetratin 1 (linked to vector peptide Penetratin 1, further chemistry not given here) [reference compound]
down-regulation of Nedd2 bands (in words) (Nedd2 [5]; control oligonucleotide, Western blot): did not down-regulate any of the bands
anti-N-Nedd2 staining (immunohistochemistry) (Nedd2 [6]): no change in staining
protection from death caused by serum deprivation (naive PC12 cells [3]): no effect on survival or death
